Structures are written as SMILES. Structures can show the parent of a compound that is named as a salt.

Experiment [1] deals with T1, noradrenaline (NA) reuptake sites (Rattus norvegicus, UniProt Q63380).
T1 construct: Frontal cortical tissue from the brains of male Sprague-Dawley rats; from tissue; host or cells: rat brain frontal cortex (crude synaptosomes in A3, washed membranes in A6)
Briefly: displacement of [3H]nisoxetine from noradrenaline reuptake sites, frontal cortical membranes. Conditions: 10^-6 M test compound, [3H]nisoxetine 0.6 nM, one test only, read-out: NA uptake (% displacement of specific binding of tritiated ligand). The method, then:
Frontal cortical tissue from the brains of male Charles River rats weighing 150-250 g was homogenised in ice-cold 50 mM Tris-HCl, pH 7.4 (at 25° C.) containing 120 mM sodium chloride and 5 mM potassium chloride (Tris buffer; 1:60 w/v) using a Kinematic polytron (speed setting 6 for 30 seconds) and centrifuged at 40,000 g for 10 minutes. The supernatant was discarded and the pellet rehomogenised in Tris buffer, 1:60 w/v, and centrifuged at 40,000 g for 10 minutes. This step was repeated twice more so that, in total, the brain tissue was homogenised and centrifuged four times. The final pellet was resuspended in 50 mM Tris-HCl, pH 7.4 containing 300 mM sodium chloride and 5 mM potassium chloride (equivalent to 25 mg wet weight of tissue/ml) and used immediately in the binding assay. All centrifugations were performed at 4° C.
Membranes (400 μl; equivalent to 10 mg wet weight of tissue/tube) were incubated with 50 μl [^3 H]nisoxetine at a single concentration of 0.6 nM and 50 μl of distilled water (total binding) or 50 μl of test compound (10^-6 M) or 50 μl of mazindol (1 μM; non-specific binding) for 4 h at 4° C.
Membrane bound radioactivity was recovered by filtration under vacuum through Skatron 11734 filters using a Skatron cell harvester. Filters were rapidly washed with ice-cold 50 mM Tris-HCl, pH 7.4 containing 120 mM sodium chloride and 5 mM potassium chloride (wash setting 9,9,0) and radioactivity determined by liquid scintillation counting (1 ml Packard MV Gold scintillator).
(§1) For each of these tests measuring the ability of compounds of Formula I to displace standard ligands from dopamine (DA), 5-hydroxytryptamine (5-HT) and noradrenaline (NA) reuptake sites in vitro, the percentage displacement of specific binding of tritiated ligand by 10^-6 M test compound was calculated in the following way:
(§2) Firstly, specific binding of tritiated ligand in the absence (A) and presence (B) of test compound was determined:
(§3) In the absence of compound:
(§4) A (dpm)=Total binding (dpm)-Non-specific binding (dpm)
(§5) In the presence of compound (10^-6 M):
(§6) B (dpm)=Binding at 10^-6 M (dpm)-Non-specific binding (dpm)
(§7) The specific binding of tritiated ligand in the presence (B) of compound was then converted to a percentage of specific binding of tritiated ligand in the absence (A) of compound:
(§8) % Specific binding at 10^-6 M=B (dpm)/A(dpm)×100
(§9) The percentage displacement of specific binding of trtiated ligand by the test compound (10^-6 M) was then obtained by subtraction of the percentage specific binding in the presence of compound from the percentage specific binding in the absence of compound, which is taken as the maximum binding and so equals 100%:
(§10) % Displacement at 10^-6 M=100-% Specific binding at 10^-6 M.
(§11) The values given below in Table 2 for examples 6 to 76 are % displacement of specific binding of tritiated ligand by 10^-6 M test compound and represent results from one test only. IA refers to <50% displacement.
In general terms: Loss of bound radioactivity is the signal in a displacement assay; it reports binding, not function.

In experiment [2] the target is T2, dopamine (DA) reuptake sites (Rattus norvegicus, UniProt P23977).
T2 construct: Striatal tissue from the brains of male Charles River rats weighing 150-250 g; from tissue; host or cells: rat brain striatum (crude synaptosomes in A1, washed membranes in A4)
T2 sequence (P23977 whole entry): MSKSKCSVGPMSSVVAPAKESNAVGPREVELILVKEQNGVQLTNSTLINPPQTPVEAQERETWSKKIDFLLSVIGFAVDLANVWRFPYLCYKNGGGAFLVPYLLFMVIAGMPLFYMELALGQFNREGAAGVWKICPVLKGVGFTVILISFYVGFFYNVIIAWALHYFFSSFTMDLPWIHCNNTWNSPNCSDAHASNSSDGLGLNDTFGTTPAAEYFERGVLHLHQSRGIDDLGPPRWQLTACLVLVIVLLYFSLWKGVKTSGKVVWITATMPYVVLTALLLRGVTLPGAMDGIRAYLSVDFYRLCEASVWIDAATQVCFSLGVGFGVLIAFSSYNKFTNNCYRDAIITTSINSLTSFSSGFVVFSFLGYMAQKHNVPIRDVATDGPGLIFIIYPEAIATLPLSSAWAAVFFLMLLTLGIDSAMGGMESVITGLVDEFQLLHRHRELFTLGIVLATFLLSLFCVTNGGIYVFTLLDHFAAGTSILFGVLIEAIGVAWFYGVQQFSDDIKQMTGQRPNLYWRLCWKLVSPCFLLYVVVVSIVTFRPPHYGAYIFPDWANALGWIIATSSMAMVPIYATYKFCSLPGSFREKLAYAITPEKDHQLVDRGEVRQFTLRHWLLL
Briefly: displacement of [3H]GBR 12935 from dopamine reuptake sites, striatal membranes. In kind it is binding. As to conditions: 10^-6 M test compound, [3H]GBR 12935 1 nM, one test only, read-out: DA uptake (% displacement of specific binding of tritiated ligand). The method, then: Striatal tissue from the brains of male Charles River rats weighing 150-250 g was homogenised in ice-cold 0.32M sucrose (1:80 w/v) using a motor driven teflon pestle (12 strokes, 800 rpm) and centrifuged at 1000 g for 12 minutes. The supernatant was stored on ice and the pellet was resuspended in 0.32M sucrose (1:80 w/v) and centrifuged at 850 g for 10 minutes. Combined supernatants were diluted to 1:320 w/v with ice-cold 50 mM Tris-HCl, pH 7.4 (at 25° C.) containing 200 mM sodium chloride and 5 mM potassium chloride (Tris buffer) and centrifuged at 40,000 g for 10 minutes. The resulting pellet was resuspended in 10 ml of 50 mM Tris buffer, incubated at 37° C. for 10 min, diluted in 50 mM Tris buffer (1:320 w/v) and recentrifuged at 40,000 g for 10 minutes. The final pellet was resuspended in 50 mM Tris buffer (equivalent to 1.25 mg wet weight of tissue/ml) and used immediately in the binding assay. All centrifugations were carried out at 4° C.
Membranes (800 μl; equivalent to 1 mg wet weight of tissue/tube) were incubated with 100 μl [^3 H]GBR 12935 at a single concentration of 1 nM and 100 μl of distilled water (total binding) or 100 μl of test compound (10^-6 M) or 100 μl of mazindol (1 μM; non-specific binding) for 90 min at 4° C.
Membrane bound radioactivity was recovered by filtration under vacuum through Whatman GF/C filters, pre-soaked for 1 h in 0.5% polyethylenimine,using a Brandel cell harvester. Filters were rapidly washed with 16 ml of ice-cold 50 mM Tris-HCl, pH 7.4 and radioactivity determined by liquid scintillation counting (2 ml Packard MV Gold scintillator).
as §1, §2, §3, §4, §5, §6, §7, §8, §9, §10, §11

The target of experiment [3] is T3, 5-hydroxytryptamine (5-HT) reuptake sites (Rattus norvegicus, UniProt P31652).
T3 construct: Frontal cortical tissue from the brains of male Sprague-Dawley rats; from tissue; host or cells: rat brain frontal cortex (crude synaptosomes in A2, washed membranes in A5)
T3 sequence (P31652 whole entry): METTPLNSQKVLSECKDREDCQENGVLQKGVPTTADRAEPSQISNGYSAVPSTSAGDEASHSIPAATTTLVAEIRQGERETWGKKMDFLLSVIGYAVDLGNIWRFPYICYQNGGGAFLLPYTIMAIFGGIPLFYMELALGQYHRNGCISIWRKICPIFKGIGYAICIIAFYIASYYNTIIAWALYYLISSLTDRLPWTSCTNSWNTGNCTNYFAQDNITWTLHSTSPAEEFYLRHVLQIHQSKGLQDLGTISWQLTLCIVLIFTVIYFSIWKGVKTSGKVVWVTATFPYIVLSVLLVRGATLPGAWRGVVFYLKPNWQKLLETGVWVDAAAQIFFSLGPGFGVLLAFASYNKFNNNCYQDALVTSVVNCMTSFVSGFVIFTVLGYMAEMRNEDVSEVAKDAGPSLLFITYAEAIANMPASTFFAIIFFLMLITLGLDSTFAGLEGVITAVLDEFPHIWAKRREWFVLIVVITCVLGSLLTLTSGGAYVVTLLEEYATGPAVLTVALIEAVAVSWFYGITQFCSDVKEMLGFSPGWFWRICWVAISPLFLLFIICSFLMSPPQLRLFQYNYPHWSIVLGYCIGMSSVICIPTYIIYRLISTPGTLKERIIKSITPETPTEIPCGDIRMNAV
The experiment is described as follows: displacement of [3H]paroxetine from 5-HT reuptake sites, frontal cortical membranes. The format is binding. Conditions: 10^-6 M test compound, [3H]paroxetine 30 pM, one test only, read-out: 5-HT uptake (% displacement of specific binding of tritiated ligand). On the procedure: Frontal cortical tissue from the brains of male Charles River rats weighing 150-250 g was homogenised in ice-cold 0.25M sucrose (1:30 w/v) using a Kinematic polytron (speed setting 6 for 30 seconds) and centrifuged at 1000 g for 12 minutes. The supernatant was stored on ice and the pellet was resuspended in 0.25M sucrose (1:20 w/v) and centrifuged at 850 g for 10 minutes. Combined supernatants were diluted to 1:100 w/v with ice-cold 50 mM Tris-HCl, pH 7.5 (at 25° C.) containing 120 mM sodium chloride and 5 mM potassium chloride (Tris buffer) and centrifuged at 40,000 g for 10 minutes. The resulting pellet was resuspended in 50 mM Tris buffer (1:100 w/v) and recentrifuged at 40,000 g for 10 minutes. The final pellet was resuspended in 50 mM Tris buffer (equivalent to 2 mg wet weight of tissue/ml) and used immediately in the binding assay. All centrifugations were carried out at 4° C.
Membranes (1000 μl; equivalent to 2 mg wet weight of tissue/tube) were incubated with 200 μl [^3 H]paroxetine at a single concentration of 30 pM and 200 μl of distilled water (total binding) or 200 μl of test compound (10^-6 M) or 200 μl of citalopram (1 μM; non-specific binding) for 2 h at 22° C.
Membrane bound radioactivity was recovered by filtration under vacuum through Whatman GFIC filters using a Brandel cell harvester. Filters were rapidly washed with 16 ml ice-cold 50 mM Tris buffer and radioactivity determined by liquid scintillation counting (2 ml Packard MV Gold scintillator).
as §1, §2, §3, §4, §5, §6, §7, §8, §9, §10, §11

T1 sequence (Q63380 1-617): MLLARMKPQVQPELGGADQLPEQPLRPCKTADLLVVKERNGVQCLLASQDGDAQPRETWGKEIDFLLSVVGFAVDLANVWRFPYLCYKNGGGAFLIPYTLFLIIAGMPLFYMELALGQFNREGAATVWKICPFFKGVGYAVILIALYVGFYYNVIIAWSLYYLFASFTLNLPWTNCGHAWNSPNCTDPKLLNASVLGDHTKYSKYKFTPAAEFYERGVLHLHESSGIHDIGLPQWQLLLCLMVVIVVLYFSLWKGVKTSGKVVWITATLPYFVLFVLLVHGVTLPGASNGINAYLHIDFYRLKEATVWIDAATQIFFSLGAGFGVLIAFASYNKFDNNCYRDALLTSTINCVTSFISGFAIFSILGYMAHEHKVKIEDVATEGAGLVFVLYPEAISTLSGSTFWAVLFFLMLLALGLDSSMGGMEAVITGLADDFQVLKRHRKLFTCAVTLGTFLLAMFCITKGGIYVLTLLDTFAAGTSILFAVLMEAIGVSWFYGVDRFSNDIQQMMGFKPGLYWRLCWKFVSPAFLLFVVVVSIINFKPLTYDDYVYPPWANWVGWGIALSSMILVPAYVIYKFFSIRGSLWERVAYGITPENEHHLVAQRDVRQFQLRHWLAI

Turning to `Cc1ccc(N=c2scc(C3(c4ccc5ccccc5c4)CCC3)n2-c2ccc(C)cc2C)c(C)c1` [Example 52, 4-[1-(2-Naphthyl)cyclobutyl]-3-(2,4-xylyl)-2-(2,4-xylylimino)-2,3-dihydrothiazole hydrobromide], the inhibition at 1 µM is less than 50% in experiment [1], 74% in experiment [2] and less than 50% in experiment [3].
On to `Cc1ccccc1N=c1scc(C2(c3ccc(Cl)c(Cl)c3)CCC2)n1-c1ccccc1C` [Example 29, 4-[1-(3,4-Dichlorophenyl)cyclobutyl]-3-(o-tolyl)-2-(o-tolylimino)-2,3-dihydrothiazole hydrobromide], for which the inhibition at 1 µM is less than 50% in experiment [1], 74% in experiment [2] and less than 50% in experiment [3].
For `COc1ccc(CCN=c2scc(C3(c4ccc5ccccc5c4)CCC3)n2CCc2ccc(OC)c(OC)c2)cc1OC` [Example 55, 3-(3,4-Dimethoxyphenethyl)-2-(3,4-dimethoxyphenethylimino)-4-[1-(2-naphthyl)cyclobutyl]-2,3-dihydrothiazole hydrobromide], the inhibition at 1 µM in experiment [1] is less than 50%; in experiment [2], 91%; in experiment [3] it was less than 50%.
As to `COc1ccc(CCN=c2scc(C3(c4ccccc4)CCCCC3)n2CCc2ccc(OC)c(OC)c2)cc1OC` [Example 68, 3-(3,4-Dimethoxyphenethyl)-2-(3,4-dimethoxyphenethylimino)-4-(1-phenylcyclohexyl)-2,3-dihydrothiazole hydrobromide], the results for the inhibition at 1 µM in experiment [1], in experiment [2] and in experiment [3] were less than 50%, 65% and less than 50%, respectively.
Consider `Clc1ccc(C2(c3csc(=NCc4cccnc4)n3Cc3cccnc3)CCC2)cc1Cl` [Example 25, 4-[1-(3,4-Dichlorophenyl)cyclobutyl]-3-(3-pyridylmethyl)-2-(3-pyridylmethylimino)-2,3-dihydrothiazole hydrobromide], for which the inhibition at 1 µM stood at 66% in experiment [1], 108% in experiment [2] and 95% in experiment [3].
Consider `Cc1ccc(N=c2scc(C3(c4ccc(Cl)c(Cl)c4)CCC3)n2-c2ccc(C)cc2C)c(C)c1` [Example 31, 4-[1-(3,4-Dichlorophenyl)cyclobutyl]-3-(2,4-xylyl)-2-(2,4-xylylimino)-2,3-dihydrothiazole hydrobromide], for which the inhibition at 1 µM is less than 50% in experiment [1], 63% in experiment [2] and less than 50% in experiment [3].
`Clc1ccc(C2=C(C3(c4ccc(Cl)c(Cl)c4)CCC3)N3CCN=C3S2)cc1` [Example 10, 2-(4-chlorophenyl)-3-[1-(3,4-dichlorophenyl)cyclobutyl]-5,6-dihydroimidazo[2,1-b]thiazole hydrobromide]: the values for the inhibition at 1 µM in experiment [1], in experiment [2] and in experiment [3] were less than 50%, 85% and 57%, respectively.
In the same order, the values of `C=CCN=c1scc(C2(c3ccc4ccccc4c3)CCC2)n1CC=C` [Example 42, 3-Allyl-2-allylimino-4-[1-(2-naphthyl)cyclobutyl]-2,3-dihydrothiazole hydrobromide] are 93%, 113% and 101%.
For `Clc1ccc(C2(c3csc(=NCCc4ccccc4)n3CCc3ccccc3)CCC2)cc1Cl` [Example 24, 4-[1-(3,4-Dichlorophenyl)cyclobutyl]-3-phenethyl-2-phenethylimino-2,3-dihydrothiazole hydrobromide], the inhibition at 1 µM in experiment [1] is less than 50%; in experiment [2] it was 90%; in experiment [3] it was less than 50%.
Take `COc1ccc(CCN=c2scc(C3(c4ccc(Br)cc4)CCC3)n2CCc2ccc(OC)c(OC)c2)cc1OC` [Example 66, 4-[1-(4-Bromophenyl)cyclobutyl]-3-(3,4-dimethoxyphenethyl)-2-(3,4-dimethoxyphenethylimino)-2,3-dihydrothiazole hydrobromide]: the inhibition at 1 µM in experiment [1] is less than 50%; in experiment [2] it was 58%; in experiment [3], less than 50%.
As to `Fc1ccc(CN=c2scc(C3(c4ccc(Cl)c(Cl)c4)CCC3)n2Cc2ccc(F)cc2)cc1` [Example 23, 4-[1-(3,4-Dichlorophenyl)cyclobutyl]-3-(4-fluorobenzyl)-2-(4-fluorobenzylimino)-2,3-dihydrothiazole hydrobromide], the inhibition at 1 µM is less than 50% in experiment [1], 83% in experiment [2] and less than 50% in experiment [3].
Consider `CN=c1scc(C2(c3ccc4ccccc4c3)CCC2)n1C` [Example 36, 3-Methyl-2-methylimino-4-[1-(2-naphthyl)cyclobutyl]-2,3-dihydrothiazole hydrobromide], for which the inhibition at 1 µM in experiment [1] was 101%; in experiment [2], 108%; in experiment [3], 101%.
As for `CSc1ccc(C2(C3=CSC4=NCCN34)CCC2)cc1` [Example 76, 3-[1-(4-Methylthiophenyl)cyclobutyl]-5,6-dihydroimidazo[2,1-b]thiazole hydrobromide], the figures for the inhibition at 1 µM in experiment [1], in experiment [2] and in experiment [3] were less than 50%, less than 50% and 81%, respectively.

The values above are taken from patent publication US6187802A, “Substituted 4-arylmethylene-2-imino-2,3-dihydrothiazoles and derivatives and their pharmaceutical use” (Knoll Aktiengesellschaft, priority 1997, dated 2001).
